According to US12187706B2, “NLRP3 modulators” (INNATE TUMOR IMMUNITY, INC., priority 2019, dated 2025):

What follows are compounds tested against T1, NLRP3 (Homo sapiens, UniProt Q96P20) (assay: Measurement of IL-1β production in PMA-differentiated THP-1 cells (NLRP3 hIL1B)).
T1 construct: host or cells: PMA-differentiated THP-1 cells
Assay type: cell-based
Description: Measurement of IL-1β Production in PMA-Differentiated THP-1 Cells
THP-1 cells were purchased from the American Type Culture Collection and sub-cultured according to instructions from the supplier. Prior to experiments, cells were cultured in RPMI 1640 containing 10% heat inactivated FBS, penicillin (100 units/ml) and streptomycin (100 μg/ml), and maintained in log phase prior to experimental setup. Prior to the experiment THP-1 were treated with PMA (Phorbol 12-myristate 13-acetate) (10 μg/ml) for 24 hours. The day of the experiment the media was removed and attaching cells were treated with trypsin for 2 minutes, cells were then collected, washed with PBS (phosphate buffer saline), spin down, resuspended in 2% heat inactivated FBS with RPMI at a concentration of 1×10^6 cells/ml, and 100 μl was plated in a 96 well plate. Compounds were dissolved in dimethyl sulfoxide (DMSO) and added to the culture medium to achieve desired concentration (e.g. 100, 30, 10, 3, 1, 0.3 or 0.1 μM). Cells were incubated with compounds for 4 hours. Cell free supernatant was collected and the production of IL-1β was evaluated by ELISA. A vehicle only control was run concurrently with each experiment. Final DMSO concentration was 1%.
Measurement of IL-1β Production in PMA-Differentiated THP-1 Cells (Alternative Procedure)
THP-1 cells were purchased from the American Type Culture Collection and sub-cultured according to instructions from the supplier. Prior to experiments, cells were cultured in RPMI 1640 containing 10% heat inactivated FBS, penicillin (100 units/ml), streptomycin (100 μg/ml), HEPES (10 mM) and sodium pyruvate (1 mM) and maintained in log phase prior to experimental setup. Prior to the experiment, THP-1 cells were treated with PMA (Phorbol 12-myristate 13-acetate) (20 μg/ml) overnight. The day of the experiment, the media was removed and attached cells were treated with trypsin for 2 minutes, cells were then collected, washed with PBS (phosphate buffer saline), pelleted by centrifugation and resuspended in 2% heat inactivated FBS with RPMI at a concentration of 50,000 cells/well in a 384 well plate. Cell free supernatant was collected and the production of IL-1β was evaluated by ELISA. Compounds were dissolved in dimethyl sulfoxide (DMSO) and added to the culture medium to achieve desired concentration (e.g. 100, 30, 10, 3, 1, 0.3 or 0.1 μM). Cells were incubated with compounds for 2 hours. A vehicle only control was run concurrently with each experiment. Final DMSO concentration was 1%.
Measurement of IL-1β Production—hTRF Protocol (Second Alternative Procedure)
Serial dilutions of compounds in DMSO were added to low volume 384 well plates at 100 nl/well using an ECHO 550 acoustic dispenser (Labcyte) to achieve final starting concentration of 10 μM in assay.
THP-1 cells in RPMI (Gibco, 11875) media with 10% FBS at a density of 1×10^6 cell/ml in a T175 flask were treated with a final concentration of phorbol 12-myristate 13-acetate (PMA) (Sigma, P1585) of 50 ng/ml overnight at 37° C. at 5% CO2 for differentiation. Cells were harvested the next day after rinsing well with dPBS using 0.5% trypsin. A cell solution was prepared of 1×10^6 cells/ml for 50,000 cells in 50 μl/well in RPMI media with 2% FBS. Cells were plated using a multichannel pipette onto the compound dilutions in Greiner, 384 well, black clear bottom tissue culture treated plates (781090). The plates were incubated in 37° C. incubator at 5% CO2 for 2 hours.
After the 2 hour incubation, the cell plates were spun in the centrifuge for 5 minutes at 1200 rpm. Using the Felix (CyBio), 8 μl of the supernatant was transferred to 384 well, low volume, white proxy plates. (Perkin Elmer, 6008230). A human IL1beta hTRF kit was used to analyze the supernatant (CISBIO, 62HIL1BPEG). The kit instructions were followed for preparing the IL1Beta standard curve and then the antibodies from the kit were diluted 1:40 rather than 1:20 as kit instructed.

T1 sequence (Q96P20 whole entry): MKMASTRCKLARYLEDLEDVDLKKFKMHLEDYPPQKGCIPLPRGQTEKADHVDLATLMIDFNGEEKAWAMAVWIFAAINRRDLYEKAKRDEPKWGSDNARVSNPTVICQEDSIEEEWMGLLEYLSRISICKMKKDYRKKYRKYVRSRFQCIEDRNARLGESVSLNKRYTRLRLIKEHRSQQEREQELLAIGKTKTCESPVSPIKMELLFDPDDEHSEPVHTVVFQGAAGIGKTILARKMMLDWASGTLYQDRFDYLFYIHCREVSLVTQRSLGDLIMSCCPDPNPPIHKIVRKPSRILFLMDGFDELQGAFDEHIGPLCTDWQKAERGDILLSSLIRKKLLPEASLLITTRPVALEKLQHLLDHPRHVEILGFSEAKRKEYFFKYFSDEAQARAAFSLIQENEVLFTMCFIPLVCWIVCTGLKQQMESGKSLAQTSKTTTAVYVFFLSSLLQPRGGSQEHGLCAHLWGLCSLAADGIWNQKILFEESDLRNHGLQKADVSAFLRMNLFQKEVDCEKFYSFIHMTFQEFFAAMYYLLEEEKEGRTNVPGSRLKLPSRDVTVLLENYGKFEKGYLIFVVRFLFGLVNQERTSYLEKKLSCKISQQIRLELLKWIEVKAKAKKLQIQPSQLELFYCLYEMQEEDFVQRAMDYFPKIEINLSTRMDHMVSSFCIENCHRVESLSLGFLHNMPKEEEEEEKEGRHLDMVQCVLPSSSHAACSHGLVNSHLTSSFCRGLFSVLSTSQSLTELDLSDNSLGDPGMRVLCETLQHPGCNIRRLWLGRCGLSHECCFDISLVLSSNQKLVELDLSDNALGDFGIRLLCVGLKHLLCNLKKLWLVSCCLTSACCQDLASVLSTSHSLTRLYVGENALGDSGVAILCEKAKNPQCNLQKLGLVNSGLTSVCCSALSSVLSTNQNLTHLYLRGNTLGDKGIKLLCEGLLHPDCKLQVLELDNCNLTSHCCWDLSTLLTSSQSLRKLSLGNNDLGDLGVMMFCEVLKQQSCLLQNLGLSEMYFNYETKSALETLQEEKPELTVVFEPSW

Row | Compound | EC50 [µM]
1 | Nc1nc(N[C@@H]2CCCC[C@@H]2O)c2ccc(-c3ccn[nH]3)cc2n1 [Example 68] | 1.1
2 | Nc1nc(NC[C@@H](O)CO)c2ccc(-c3ccn[nH]3)cc2n1 [Example 69] | 1.86
3 | Nc1nc(NC[C@H](O)CO)c2ccc(-c3ccn[nH]3)cc2n1 [Example 70] | 0.8
4 | Nc1nc(NCc2ccno2)c2ccc(-c3ccn[nH]3)cc2n1 [Example 71] | 0.64
5 | COCC(O)CNc1nc(N)nc2cc(-c3ccn[nH]3)ccc12 (stereo not shown) [Example 72] | 0.53
6 | CC(C)(CO)CNc1nc(N)nc2cc(-c3ccn[nH]3)ccc12 [Example 73] | 0.23
7 | Nc1nc(NC(CO)CO)c2ccc(-c3ccn[nH]3)cc2n1 [Example 74] | 0.78
8 | Cn1cncc1CNc1nc(N)nc2cc(-c3ccn[nH]3)ccc12 [Example 75] | 5.52
9 | COCc1noc(CNc2nc(N)nc3cc(-c4ccn[nH]4)ccc23)n1 [Example 76] | 0.76
10 | Nc1nc(NCC(F)F)c2ccc(-c3ccn[nH]3)cc2n1 [Example 78] | 0.63
11 | Cc1cnc(CNc2nc(N)nc3cc(-c4ccn[nH]4)ccc23)cn1 [Example 80] | 0.71
12 | Cc1noc(C)c1CNc1nc(N)nc2cc(-c3ccn[nH]3)ccc12 [Example 81] | 1.2
13 | NC(=O)CC(Nc1nc(N)nc2cc(-c3ccn[nH]3)ccc12)c1cccnc1 (stereo not shown) [Example 82] | 3.65
14 | CC(CO)(CO)Nc1nc(N)nc2cc(-c3ccn[nH]3)ccc12 [Example 83] | 2.41
15 | CNc1nc(N)nc2cc(-c3ccn[nH]3)ccc12 [Example 84] | 0.28
16 | Nc1nc(NCCCCO)c2ccc(-c3ccn[nH]3)cc2n1 [Example 85] | 0.23
17 | Nc1nc(NCCCCCO)c2ccc(-c3ccn[nH]3)cc2n1 [Example 86] | 0.22
18 | Nc1nc(NCc2cnc[nH]2)c2ccc(-c3ccn[nH]3)cc2n1 [Example 87] | 1.63
19 | Nc1nc(NCC(F)(F)CO)c2ccc(-c3ccn[nH]3)cc2n1 [Example 88] | 0.22

Row | Compound | EC50 [µM]
20 | CC(C)(O)CCNc1nc(N)nc2cc(-c3ccn[nH]3)ccc12 [Example 89] | 0.46
21 | C[C@]1(O)CC[C@@H](Nc2nc(N)nc3cc(-c4ccn[nH]4)ccc23)CC1 [Example 90] | 0.83
22 | CC(C)(CO)CCCNc1nc(N)nc2cc(-c3ccn[nH]3)ccc12 [Example 91] | 1.3
23 | COCCCNc1nc(N)nc2cc(-c3ccn[nH]3)ccc12 [Example 94] | 0.18
24 | CCCCONc1nc(N)nc2cc(-c3ccn[nH]3)ccc12 [Example 95] | 0.63
25 | COCCNc1nc(N)nc2cc(-c3ccn[nH]3)ccc12 [Example 102] | 0.21
26 | CCOCCNc1nc(N)nc2cc(-c3ccn[nH]3)ccc12 [Example 103] | 0.37
27 | Nc1nc(N[C@@H]2CCCOC2)c2ccc(-c3ccn[nH]3)cc2n1 [Example 104] | 0.39
28 | Nc1nc(NC2CCCOC2)c2ccc(-c3ccn[nH]3)cc2n1 (stereo not shown) [Example 105] | 1.98
29 | Nc1nc(NCC#CCO)c2ccc(-c3ccn[nH]3)cc2n1 [Example 106] | 0.5
30 | Nc1nc(Nc2ccccc2)c2ccc(-c3ccn[nH]3)cc2n1 [Example 111] | 0.4
31 | Nc1nc(Nc2cn[nH]c2)c2ccc(-c3ccn[nH]3)cc2n1 [Example 112] | 0.24
32 | Nc1nc(Nc2ccon2)c2ccc(-c3ccn[nH]3)cc2n1 [Example 113] | 2.23
33 | Nc1nc(Nc2cnoc2)c2ccc(-c3ccn[nH]3)cc2n1 [Example 114] | 0.37
34 | Nc1nc(Nc2ccn(CCO)n2)c2ccc(-c3ccn[nH]3)cc2n1 [Example 115] | 18
35 | Nc1nc(Nc2cc(CCO)[nH]n2)c2ccc(-c3ccn[nH]3)cc2n1 [Example 116] | 0.5
36 | Nc1nc(NCCc2ccccn2)c2ccc(-c3cc[nH]n3)cc2n1 [Example 119] | 0.49
37 | Cc1cc(C)c(CNc2nc(N)nc3cc(-c4ccn[nH]4)ccc23)c(=O)[nH]1 [Example 143] | 1.23

Results, then the compound that gave them:

Row | EC50 [µM] | Compound
38 | 0.68 | Nc1nc(N2CCCOCC2)c2ccc(-c3cc[nH]n3)cc2n1 [Example 120]
39 | 1.85 | Nc1nc(N[C@@H]2CCOC2)c2ccc(-c3cc[nH]n3)cc2n1 [Example 121]
40 | 1.11 | Nc1nc(NCCc2ccccn2)c2c(F)cc(-c3cc[nH]n3)cc2n1 [Example 122]
41 | 2.86 | Nc1nc(N2CCCOCC2)c2c(F)cc(-c3cc[nH]n3)cc2n1 [Example 123]
42 | 0.6 | Nc1nc(NCc2cc[nH]n2)c2c(F)cc(-c3cc[nH]n3)cc2n1 [Example 124]
43 | 0.76 | Nc1nc(NCCO)c2c(F)cc(-c3cc[nH]n3)cc2n1 [Example 126]
44 | 1.22 | Nc1nc(N[C@@H]2CCOC2)c2c(F)cc(-c3cc[nH]n3)cc2n1 [Example 127]
45 | 0.83 | Nc1nc(NCc2cncnc2)c2c(F)cc(-c3cc[nH]n3)cc2n1 [Example 128]
46 | 0.37 | Nc1nc(NCc2cc[nH]n2)c2c(Cl)cc(-c3cc[nH]n3)cc2n1 [Example 129]
47 | 5.61 | COc1cc(-c2cc[nH]n2)cc2nc(N)nc(NCCO)c12 [Example 131]
48 | 2.18 | COc1cc(-c2cc[nH]n2)cc2nc(N)nc(NCc3cc[nH]n3)c12 [Example 132]
49 | 0.65 | COc1cc(-c2cc[nH]n2)cc2nc(N)nc(N[C@@H]3CCOC3)c12 [Example 133]
50 | 1.74 | COc1cc(-c2cc[nH]n2)cc2nc(N)nc(NCCc3ccccn3)c12 [Example 134]
51 | 1.44 | COc1cc(-c2cc[nH]n2)cc2nc(N)nc(NCc3cncnc3)c12 [Example 135]
52 | 1.06 | Cc1cc(-c2cc[nH]n2)cc2nc(N)nc(NCc3cncnc3)c12 [Example 136]
53 | 0.17 | Cc1cc(-c2cc[nH]n2)cc2nc(N)nc(NCc3cc[nH]n3)c12 [Example 137]
54 | 2.14 | Nc1nc(N[C@@H]2COCC[C@H]2O)c2ccc(-c3ccn[nH]3)cc2n1 [Example 138]

Row | EC50 [µM] | Compound
55 | 1.77 | CN1CC[C@H](Nc2nc(N)nc3cc(-c4ccn[nH]4)ccc23)C1 [Example 139]
56 | 1.02 | Nc1nc(NCCOCCO)c2ccc(-c3ccn[nH]3)cc2n1 [Example 140]
57 | 0.51 | Nc1nc(NCc2cccnn2)c2ccc(-c3ccn[nH]3)cc2n1 [Example 142]
58 | 0.09 | Nc1nc(NCc2cccnc2)c2ccc(-c3ccn[nH]3)cc2n1 [Example 144]
59 | 8.48 | Cn1cnc(CNc2nc(N)nc3cc(-c4ccn[nH]4)ccc23)c1 [Example 146]
60 | 0.26 | Nc1nc(NCc2cn[nH]c2)c2ccc(-c3ccn[nH]3)cc2n1 [Example 147]
61 | 0.51 | Nc1nc(NCCc2cnc[nH]2)c2ccc(-c3ccn[nH]3)cc2n1 [Example 148]
62 | 0.65 | Nc1nc(NCc2ccc(Cl)cn2)c2ccc(-c3ccn[nH]3)cc2n1 [Example 151]
63 | 0.42 | Nc1nc(NCCc2cccnc2)c2ccc(-c3ccn[nH]3)cc2n1 [Example 153]
64 | 0.16 | Nc1nc(N[C@H]2C[C@H](O)C2)c2ccc(-c3ccn[nH]3)cc2n1 [Example 154]
65 | 0.49 | Nc1nc(NCc2cocn2)c2ccc(-c3ccn[nH]3)cc2n1 [Example 155]
66 | 0.44 | Nc1nc(NCc2cccc3[nH]ncc23)c2ccc(-c3ccn[nH]3)cc2n1 [Example 156]
67 | 1.32 | Nc1nc(NCCN2CCOCC2)c2ccc(-c3ccn[nH]3)cc2n1 [Example 157]
68 | 1.59 | Nc1nc(N[C@H]2C[C@@H](O)C2)c2ccc(-c3ccn[nH]3)cc2n1 [Example 158]
69 | 0.43 | Nc1nc(N[C@H]2CC[C@@H](O)C2)c2ccc(-c3ccn[nH]3)cc2n1 [Example 159]
70 | 0.65 | COc1cccc(CNc2nc(N)nc3cc(-c4ccn[nH]4)ccc23)n1 [Example 160]
